“Also recorded” adds a separate entry of the source. Where two headings read alike, the source gives them in different places.
Assays:
CYP3A4 [1] = target: T1, CYP3A4 (Homo sapiens, UniProt P08684); conditions: 18 patients with solid tumors, before/after design; cited from earlier work
CYP3A = conditions: open-label, fixed-sequence study in 16 cancer patients; cited from earlier work
CYP3A4 [2] = target: T1, CYP3A4; format: in vivo; conditions: for Change in t1/2 when administered with lenvatinib: D1 and D14 vs D −3
[3] = format: in vivo, human; conditions: for Vd/F: Vz/F; for tmax: median (minimum, maximum)
CYP3A4 [4] = target: T1, CYP3A4; conditions: 18 patients with solid tumors; cited from earlier work
[5] = D −3, patients of comparison D1 vs D −3
[6] = D −3, patients of comparison D14 vs D −3
[7] = Day −3, midazolam alone, mean (SD)
[8] = D1 vs D −3 (single dose of lenvatinib 24 mg)
[9] = D14 vs D −3 (lenvatinib 24 mg at steady state)
[10] = Day 1, with single dose of lenvatinib, mean (SD)
[11] = Day 14, with lenvatinib at steady state, mean (SD)

T1 sequence (P08684 whole entry): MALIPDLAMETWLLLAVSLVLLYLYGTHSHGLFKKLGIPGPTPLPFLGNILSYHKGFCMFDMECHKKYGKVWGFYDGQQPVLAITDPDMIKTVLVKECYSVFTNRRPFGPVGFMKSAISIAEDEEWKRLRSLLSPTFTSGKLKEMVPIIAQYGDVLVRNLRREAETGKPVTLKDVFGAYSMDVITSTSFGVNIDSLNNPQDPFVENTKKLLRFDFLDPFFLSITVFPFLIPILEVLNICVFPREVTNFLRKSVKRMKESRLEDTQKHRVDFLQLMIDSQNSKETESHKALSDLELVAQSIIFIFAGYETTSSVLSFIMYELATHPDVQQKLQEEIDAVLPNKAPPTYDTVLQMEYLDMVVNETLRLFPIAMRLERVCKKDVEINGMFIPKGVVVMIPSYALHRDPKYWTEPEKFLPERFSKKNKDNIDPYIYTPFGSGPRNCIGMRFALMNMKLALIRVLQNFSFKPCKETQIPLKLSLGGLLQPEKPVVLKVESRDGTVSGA

## CC(C)C[C@H](NC(=O)[C@H](CCc1ccccc1)NC(=O)CN1CCOCC1)C(=O)N[C@@H](Cc1ccccc1)C(=O)N[C@@H](CC(C)C)C(=O)[C@@]1(C)CO1 [carfilzomib]
CYP3A4 [1]
  Effect on the pharmacokinetics of midazolam: No clinically significant effects

## CO[C@H]1C[C@@H]2CC[C@@H](C)[C@@](O)(O2)C(=O)C(=O)N2CCCC[C@H]2C(=O)O[C@H]([C@H](C)C[C@@H]2CC[C@@H](OP(C)(C)=O)[C@H](OC)C2)CC(=O)[C@H](C)/C=C(\C)[C@@H](O)[C@@H](OC)C(=O)[C@H](C)C[C@H](C)/C=C/C=C/C=C/1C [Ridaforolimus, ridaforolimus]
CYP3A
  Impact on CYP3A (midazolam probe): minimal inhibitory impact on CYP3A

## Cc1ncc2n1-c1ccc(Cl)cc1C(c1ccccc1F)=NC2 [midazolam]
CYP3A4 [2]
  Change in t1/2 when administered with lenvatinib: little change; also recorded: no statistically significant change
CYP3A4 [2]; D1 vs D −3
  Difference in median tmax: 0.00 h
CYP3A4 [2]; D14 vs D −3
  Difference in median tmax: 0.00 h
CYP3A4 [2]; D −3, D1, D14
  Change in CL/F and Vz/F over time: no statistically significant change
[3]; D14, comparison D14 vs D −3
  Cmax geometric mean, lenvatinib + midazolam (test): 24.76 ng/mL
[3]; [5]
  Cmax geometric mean, midazolam (reference): 24.73 ng/mL
[3]; [6]
  AUC0–24 geometric mean, midazolam (reference): 88.30 ng·h/mL
  Cmax geometric mean, midazolam (reference): 24.10 ng/mL
[3]; [7]
  Cmax: 26.5 (10.7) ng/mL
[3]; human, plasma, oral, 4 mg, Plasma concentration, mean (standard deviation), 1 h, D −3 midazolam only
  concentration at 1 h: 19 ng/mL
[3]; human, plasma, oral, 4 mg, Plasma concentration, mean (standard deviation), 2 h, D −3 midazolam only
  concentration at 2 h: 13.1 ng/mL
[3]; human, plasma, oral, 4 mg, Plasma concentration, mean (standard deviation), 3 h, D −3 midazolam only
  concentration at 3 h: 8.78 ng/mL
[3]; human, plasma, oral, 4 mg, Plasma concentration, mean (standard deviation), 4 h, D −3 midazolam only
  concentration at 4 h: 6.12 ng/mL
[3]; human, plasma, oral, 4 mg, Plasma concentration, mean (standard deviation), 6 h, D −3 midazolam only
  concentration at 6 h: 4.19 ng/mL
[3]; human, plasma, oral, 4 mg, Plasma concentration, mean (standard deviation), 8 h, D −3 midazolam only
  concentration at 8 h: 3.24 ng/mL
[3]; human, plasma, oral, 4 mg, Plasma concentration, mean (standard deviation), 10 h, D −3 midazolam only
  concentration at 10 h: 2.51 ng/mL
[3]; human, plasma, oral, 4 mg, Plasma concentration, mean (standard deviation), 24 h, D −3 midazolam only
  concentration at 24 h: 0.53 ng/mL
[3]; human, plasma, oral, 4 mg, Day −3, midazolam alone, mean (SD)
  Vd/F: 382 L
[3]; human, plasma, oral, 4 mg, t1/2, Day −3, midazolam alone, mean (SD)
  half-life: 352 min
[3]; human, plasma, oral, AUC0–24, Day 14, midazolam with lenvatinib at steady state, mean (SD), n = 19
  AUC(0-t): 117 ng·h/mL
[3]; human, plasma, oral, Cmax, Day 1, with single dose of lenvatinib, mean (SD)
  Cmax: 24.8 ng/mL
[3]; human, plasma, oral, Cmax, Day 14, with lenvatinib at steady state, mean (SD)
  Cmax: 28.3 ng/mL
[3]; human, plasma, oral, Plasma concentration, mean (standard deviation), 0.5 h, D14 multiple doses of lenvatinib and 1 dose of midazolam
  concentration at 0.5 h: 23.7 ng/mL
[3]; human, plasma, oral, Plasma concentration, mean (standard deviation), 1 h, D1 1 dose of lenvatinib and midazolam
  concentration at 1 h: 16.5 ng/mL
[3]; human, plasma, oral, Plasma concentration, mean (standard deviation), 1 h, D14 multiple doses of lenvatinib and 1 dose of midazolam
  concentration at 1 h: 23.1 ng/mL
[3]; human, plasma, oral, Plasma concentration, mean (standard deviation), 1.5 h, D14 multiple doses of lenvatinib and 1 dose of midazolam
  concentration at 1.5 h: 17.8 ng/mL
[3]; human, plasma, oral, Plasma concentration, mean (standard deviation), 2 h, D1 1 dose of lenvatinib and midazolam
  concentration at 2 h: 11.3 ng/mL
[3]; human, plasma, oral, Plasma concentration, mean (standard deviation), 2 h, D14 multiple doses of lenvatinib and 1 dose of midazolam
  concentration at 2 h: 13.9 ng/mL
[3]; human, plasma, oral, Plasma concentration, mean (standard deviation), 3 h, D1 1 dose of lenvatinib and midazolam
  concentration at 3 h: 7.89 ng/mL
[3]; human, plasma, oral, Plasma concentration, mean (standard deviation), 3 h, D14 multiple doses of lenvatinib and 1 dose of midazolam
  concentration at 3 h: 9.93 ng/mL
[3]; human, plasma, oral, Plasma concentration, mean (standard deviation), 4 h, D1 1 dose of lenvatinib and midazolam
  concentration at 4 h: 5.67 ng/mL
[3]; human, plasma, oral, Plasma concentration, mean (standard deviation), 4 h, D14 multiple doses of lenvatinib and 1 dose of midazolam
  concentration at 4 h: 7.58 ng/mL
[3]; human, plasma, oral, Plasma concentration, mean (standard deviation), 6 h, D1 1 dose of lenvatinib and midazolam
  concentration at 6 h: 4.08 ng/mL
[3]; human, plasma, oral, Plasma concentration, mean (standard deviation), 6 h, D14 multiple doses of lenvatinib and 1 dose of midazolam
  concentration at 6 h: 5.21 ng/mL
[3]; human, plasma, oral, Plasma concentration, mean (standard deviation), 8 h, D1 1 dose of lenvatinib and midazolam
  concentration at 8 h: 2.96 ng/mL
[3]; human, plasma, oral, Plasma concentration, mean (standard deviation), 8 h, D14 multiple doses of lenvatinib and 1 dose of midazolam
  concentration at 8 h: 4.05 ng/mL
[3]; human, plasma, oral, Plasma concentration, mean (standard deviation), 10 h, D1 1 dose of lenvatinib and midazolam
  concentration at 10 h: 2.39 ng/mL
[3]; human, plasma, oral, Plasma concentration, mean (standard deviation), 10 h, D14 multiple doses of lenvatinib and 1 dose of midazolam
  concentration at 10 h: 3.47 ng/mL
[3]; human, plasma, oral, Plasma concentration, mean (standard deviation), 24 h, D1 1 dose of lenvatinib and midazolam
  concentration at 24 h: 0.628 ng/mL
[3]; human, plasma, oral, Plasma concentration, mean (standard deviation), 24 h, D14 multiple doses of lenvatinib and 1 dose of midazolam
  concentration at 24 h: 1.25 ng/mL
[3]; human, plasma, oral, Day 1, with single dose of lenvatinib, mean (SD)
  Vd/F: 481 L
[3]; human, plasma, oral, Day 14, with lenvatinib at steady state, mean (SD)
  Vd/F: 544 L
[3]; human, plasma, oral, t1/2, Day 1, with single dose of lenvatinib, mean (SD)
  half-life: 389 min
[3]; human, plasma, oral, t1/2, Day 14, with lenvatinib at steady state, mean (SD)
  half-life: 406 min
[3]; human, plasma, oral, tmax, Day 1, with single dose of lenvatinib
  tmax: 37.8 min

## OCc1ncc2n1-c1ccc(Cl)cc1C(c1ccccc1F)=NC2 [1′-OH midazolam, 1′-hydroxy-midazolam]
CYP3A4 [2]
  Change in t1/2 when administered with lenvatinib: no statistically significant change
CYP3A4 [2]; D1 vs D −3
  Difference in median tmax: 0.00 h
CYP3A4 [2]; [8]
  AUC0–24 geometric mean ratio (test/reference): 1.120
  Cmax geometric mean ratio (test/reference): 1.055
CYP3A4 [2]; D14 vs D −3
  Difference in median tmax: 0.00 h
CYP3A4 [2]; [9]
  AUC0–24 geometric mean ratio (test/reference): 1.199
  Cmax geometric mean ratio (test/reference): 0.940
[3]; 0.5 h, D1 1 dose of lenvatinib and midazolam
  Plasma concentration, mean (standard deviation): 10.433 (11.8436) ng/mL
[3]; 0.5 h, D14 multiple doses of lenvatinib and 1 dose of midazolam
  Plasma concentration, mean (standard deviation): 8.048 (12.1629) ng/mL
[3]; 0.5 h, D −3 midazolam only
  Plasma concentration, mean (standard deviation): 7.929 (8.1952) ng/mL
[3]; 1 h, D1 1 dose of lenvatinib and midazolam
  Plasma concentration, mean (standard deviation): 9.230 (9.8222) ng/mL
[3]; 1 h, D14 multiple doses of lenvatinib and 1 dose of midazolam
  Plasma concentration, mean (standard deviation): 8.884 (8.9281) ng/mL
[3]; 1 h, D −3 midazolam only
  Plasma concentration, mean (standard deviation): 8.259 (6.9675) ng/mL
[3]; 1.5 h, D1 1 dose of lenvatinib and midazolam
  Plasma concentration, mean (standard deviation): 8.265 (9.0440) ng/mL
[3]; 1.5 h, D14 multiple doses of lenvatinib and 1 dose of midazolam
  Plasma concentration, mean (standard deviation): 7.314 (6.7286) ng/mL
[3]; 1.5 h, D −3 midazolam only
  Plasma concentration, mean (standard deviation): 7.307 (5.9056) ng/mL
[3]; 2 h, D1 1 dose of lenvatinib and midazolam
  Plasma concentration, mean (standard deviation): 6.921 (8.0144) ng/mL
[3]; 2 h, D14 multiple doses of lenvatinib and 1 dose of midazolam
  Plasma concentration, mean (standard deviation): 5.767 (5.0953) ng/mL
[3]; 2 h, D −3 midazolam only
  Plasma concentration, mean (standard deviation): 5.736 (4.1774) ng/mL
[3]; 3 h, D1 1 dose of lenvatinib and midazolam
  Plasma concentration, mean (standard deviation): 4.888 (7.3050) ng/mL
[3]; 3 h, D14 multiple doses of lenvatinib and 1 dose of midazolam
  Plasma concentration, mean (standard deviation): 4.027 (3.2372) ng/mL
[3]; 3 h, D −3 midazolam only
  Plasma concentration, mean (standard deviation): 3.698 (2.9719) ng/mL
[3]; 4 h, D1 1 dose of lenvatinib and midazolam
  Plasma concentration, mean (standard deviation): 3.395 (5.2011) ng/mL
[3]; 4 h, D14 multiple doses of lenvatinib and 1 dose of midazolam
  Plasma concentration, mean (standard deviation): 2.919 (2.1611) ng/mL
[3]; 4 h, D −3 midazolam only
  Plasma concentration, mean (standard deviation): 2.359 (1.9899) ng/mL
[3]; 6 h, D1 1 dose of lenvatinib and midazolam
  Plasma concentration, mean (standard deviation): 2.059 (2.3381) ng/mL
[3]; 6 h, D14 multiple doses of lenvatinib and 1 dose of midazolam
  Plasma concentration, mean (standard deviation): 1.773 (1.4213) ng/mL
[3]; 6 h, D −3 midazolam only
  Plasma concentration, mean (standard deviation): 1.447 (1.4379) ng/mL
[3]; 8 h, D1 1 dose of lenvatinib and midazolam
  Plasma concentration, mean (standard deviation): 1.132 (1.0593) ng/mL
[3]; 8 h, D14 multiple doses of lenvatinib and 1 dose of midazolam
  Plasma concentration, mean (standard deviation): 1.372 (1.2790) ng/mL
[3]; 8 h, D −3 midazolam only
  Plasma concentration, mean (standard deviation): 1.024 (0.9525) ng/mL
[3]; 10 h, D1 1 dose of lenvatinib and midazolam
  Plasma concentration, mean (standard deviation): 0.852 (0.7166) ng/mL
[3]; 10 h, D14 multiple doses of lenvatinib and 1 dose of midazolam
  Plasma concentration, mean (standard deviation): 1.055 (1.0511) ng/mL
[3]; 10 h, D −3 midazolam only
  Plasma concentration, mean (standard deviation): 0.767 (0.6376) ng/mL
[3]; 24 h, D1 1 dose of lenvatinib and midazolam
  Plasma concentration, mean (standard deviation): 0.186 (0.1472) ng/mL
[3]; 24 h, D14 multiple doses of lenvatinib and 1 dose of midazolam
  Plasma concentration, mean (standard deviation): 0.282 (0.1998) ng/mL
[3]; 24 h, D −3 midazolam only
  Plasma concentration, mean (standard deviation): 0.158 (0.1110) ng/mL
[3]; D1, comparison D1 vs D −3
  AUC0–24 geometric mean, lenvatinib + midazolam (test): 37.91 ng·h/mL
  Cmax geometric mean, lenvatinib + midazolam (test): 9.54 ng/mL
[3]; D14, comparison D14 vs D −3
  AUC0–24 geometric mean, lenvatinib + midazolam (test): 36.93 ng·h/mL
  Cmax geometric mean, lenvatinib + midazolam (test): 8.24 ng/mL
[3]; [5]
  AUC0–24 geometric mean, midazolam (reference): 33.84 ng·h/mL
  Cmax geometric mean, midazolam (reference): 9.04 ng/mL
[3]; [6]
  AUC0–24 geometric mean, midazolam (reference): 30.81 ng·h/mL
  Cmax geometric mean, midazolam (reference): 8.76 ng/mL
[3]; Day 1, midazolam with single dose of lenvatinib 24 mg, mean (SD), n = 28
  AUC0–24: 48.6 (47.8) ng × h/mL
[3]; [10]
  Cmax: 12.7 (11.6) ng/mL
  t1/2: 5.48 (2.26) h
[3]; Day 1, with single dose of lenvatinib
  tmax: 0.75 (0.25, 2.00) h
[3]; Day 14, midazolam with lenvatinib at steady state, mean (SD), n = 19
  AUC0–24: 41.3 (34.3) ng × h/mL
[3]; [11]
  Cmax: 10.7 (11.6) ng/mL
  t1/2: 5.53 (1.99) h
[3]; Day 14, with lenvatinib at steady state
  tmax: 0.77 (0.25, 1.50) h
[3]; Day −3, midazolam 4 mg oral alone, mean (SD), n = 29
  AUC0–24: 38.5 (26.5) ng × h/mL
[3]; [7]
  Cmax: 11.0 (8.64) ng/mL
  t1/2: 5.58 (1.15) h
[3]; Day −3, midazolam alone
  tmax: 0.75 (0.25, 2.02) h

## COC[C@H](NC(=O)c1cnc(C)s1)C(=O)N[C@@H](COC)C(=O)N[C@@H](Cc1ccccc1)C(=O)[C@@]1(C)CO1 [Oprozomib, oprozomib]
CYP3A4 [4]
  CYP3A4 inhibition in patients (midazolam): clinically relevant inhibition was not seen
